Measurements as given in patent publication US11464770B2, “Anticancer pharmaceutical composition” (NATIONAL CANCER CENTER, priority 2016, dated 2022).
Like-named read-outs stand apart in the source and are kept apart here.

Assays:
[1] = test system: colorectal cancer cell lines (e.g. DLD-1, HCT 116, SW620, HCT-15, HCT-8, RKO); assay: Cell based assay, cell viability (CellTiter-Glo), colorectal cancer cell lines
Experimental: (§1) Commercially available bladder cancer, prostate cancer, lung cancer, breast cancer, blood cancer, pancreatic cancer, colorectal cancer, brain cancer, neuroblastoma, melanoma, liver cancer, cervical carcinoma, ovarian cancer, renal cancer, and papilloma cell lines were each treated with trypsin-EDTA and cultured, followed by being seeded in each well of a 96 well plate. After 24 hours of treatment at constant temperature, the respective cells were treated with the candidate compound so that a final concentration became 0 to 2 μM. The treated cells were additionally cultured for 72 hours, and cell viability was measured by using an ATP detection method (CellTiter-Glo® Luminescent Cell Viability Assay, Promega).

[2] = test system: liver cancer cell lines; assay: Cell based assay, cell viability (CellTiter-Glo), liver cancer cell lines; conditions: Homo sapiens, SK-HEP1; SK-HEP-1 cell line
Experimental: as §1

[3] = Homo sapiens, DLD-1, 72 hours treatment, read-out: IC50, colorectal cancer cell line DLD-1
[4] = Homo sapiens, HCT 116, 72 hours treatment, read-out: IC50, colorectal cancer cell line HCT 116
[5] = Homo sapiens, HCT-8, 72 hours treatment, read-out: IC50, colorectal cancer cell line HCT-8
[6] = Homo sapiens, HCT-15, 72 hours treatment, read-out: IC50, colorectal cancer cell line HCT-15
[7] = Homo sapiens, HT-29, 72 hours treatment, read-out: IC50, colorectal cancer cell line HT-29
[8] = Homo sapiens, LoVo, 72 hours treatment, read-out: IC50, colorectal cancer cell line LoVo
[9] = Homo sapiens, SW480, 72 hours treatment, read-out: IC50, colorectal cancer cell line SW480
[10] = Homo sapiens, SW-620, SW620, 72 hours treatment, read-out: IC50, colorectal cancer cell line SW620
[11] = RKO, 72 hours treatment, read-out: IC50, colorectal cancer cell line RKO
[12] = Homo sapiens, DLD-1 cells, 72 hours treatment, read-out: IC50, colorectal cancer cell line DLD-1
[13] = Homo sapiens, HCT 116 cells, 72 hours treatment, read-out: IC50, colorectal cancer cell line HCT 116
[14] = Homo sapiens, HCT-8 cells, 72 hours treatment, read-out: IC50, colorectal cancer cell line HCT-8
[15] = Homo sapiens, HCT-15 cells, 72 hours treatment, read-out: IC50, colorectal cancer cell line HCT-15
[16] = Homo sapiens, HT-29 cells, 72 hours treatment, read-out: IC50, colorectal cancer cell line HT-29
[17] = Homo sapiens, LoVo cells, 72 hours treatment, read-out: IC50, colorectal cancer cell line LoVo
[18] = Homo sapiens, RKO cells, 72 hours treatment, read-out: IC50, colorectal cancer cell line RKO
[19] = Homo sapiens, SW480 cells, 72 hours treatment, read-out: IC50, colorectal cancer cell line SW480
[20] = Homo sapiens, SW-620, SW620 cells, 72 hours treatment, read-out: IC50, colorectal cancer cell line SW620

Structure (SMILES) | IC50 [1, 3] | IC50 [1, 4] | IC50 [1, 5] | IC50 [1, 6] | IC50 [1, 7] | IC50 [1, 8] | IC50 [1, 9] | IC50 [1, 10] | IC50 [1, 11] | IC50 [2] | IC50 [1, 12] | IC50 [1, 13] | IC50 [1, 14] | IC50 [1, 15] | IC50 [1, 16] | IC50 [1, 17] | IC50 [1, 18] | IC50 [1, 19] | IC50 [1, 20]
CC(=O)c1c([S+]([O-])C(C)c2ccccc2)[nH]c2c(Br)ccc(Cl)c2c1=O (stereo not drawn) [Compound 26, 3-acetyl-8-bromo-5-chloro-2-((1-phenylethyl)sulfinyl)quinolin-4(1H)-one] | > 2000 nM | > 2000 nM | > 2000 nM | > 2000 nM | > 10000 nM | > 2000 nM | > 2000 nM | > 2000 nM | 1790 nM | > 2000 nM | – | – | – | – | – | – | – | – | –
CC(=O)c1c([S+](C)[O-])n(S(=O)(=O)c2ccc(C(C)(C)C)cc2)c2c(Br)ccc(Cl)c2c1=O (stereo not drawn) [Compound 42, 3-acetyl-8-bromo-1-((4-(tert-butyl)phenyl)sulfonyl)-5-chloro-2-(methylsulfinyl)quinolin-4(1H)-one] | 1960 nM | > 2000 nM | > 2000 nM | > 2000 nM | > 10000 nM | > 2000 nM | > 2000 nM | > 2000 nM | > 2000 nM | > 2000 nM | – | – | – | – | – | – | – | – | –
CC(=O)c1c(S(=O)(=O)Cc2ccccc2)nc2c(Br)ccc(Cl)c2c1O [Compound 54, 1-(2-(benzylsulfonyl)-8-bromo-5-chloro-4-hydroxyquinolin-3-yl)ethan-1-one] | > 2000 nM | > 2000 nM | > 2000 nM | > 2000 nM | > 10000 nM | > 2000 nM | > 2000 nM | > 2000 nM | > 2000 nM | > 2000 nM | – | – | – | – | – | – | – | – | –
COc1cccc2[nH]c([S+]([O-])Cc3ccc(S(F)(F)(F)(F)F)cc3)c(C(C)=O)c(=O)c12 (stereo not drawn) [Compound 93, 3-acetyl-5-methoxy-2-((4-(pentafluoro--sulfanyl)benzyl)sulfinyl)quinolin-4(1H)-one] | – | – | – | – | – | – | – | – | – | > 2000 nM | > 2000 nM | > 2000 nM | > 2000 nM | > 2000 nM | > 10000 nM | > 2000 nM | > 2000 nM | > 2000 nM | > 2000 nM
CSc1c(C(C)=O)c(=O)c2c(Cl)ccc(Br)c2n1S(=O)(=O)c1ccc([N+](=O)[O-])cc1 [Compound 38, 3-acetyl-8-bromo-5-chloro-2-(methylthio)-1-((4-nitrophenyl)sulfonyl)quinolin-4(1H)-one] | > 2000 nM | > 2000 nM | > 2000 nM | > 2000 nM | > 10000 nM | > 2000 nM | > 2000 nM | > 2000 nM | > 2000 nM | > 2000 nM | – | – | – | – | – | – | – | – | –
CC(=O)c1c(S/C=C\C(=O)O)[nH]c2c(Br)ccc(Cl)c2c1=O [Compound 67, (Z)-3-((3-acetyl-8-bromo-5-chloro-4-oxo-1,4-dihydroquinolin-2-yl)thio)acrylic acid] | > 2000 nM | > 2000 nM | > 2000 nM | > 2000 nM | > 10000 nM | > 2000 nM | > 2000 nM | > 2000 nM | > 2000 nM | > 2000 nM | – | – | – | – | – | – | – | – | –
CC(=O)c1c([S+]([O-])Cc2ccc(Cl)cc2)[nH]c2c(Br)ccc(Cl)c2c1=O (stereo not drawn) [Compound 11, 3-acetyl-8-bromo-5-chloro-2-((4-chlorobenzyl)sulfinyl)quinolin-4(1H)-one] | 820 nM | > 2000 nM | > 2000 nM | > 2000 nM | > 10000 nM | > 2000 nM | > 2000 nM | > 2000 nM | > 2000 nM | > 2000 nM | – | – | – | – | – | – | – | – | –
CC(=O)c1c([S+]([O-])Cc2ccccc2)n(C(=O)c2ccc(Br)cc2)c2c(Br)ccc(Cl)c2c1=O (stereo not drawn) [Compound 20, 3-acetyl-2-(benzylsulfinyl)-8-bromo-1-(4-bromobenzoyl)-5-chloroquinolin-4(1H)-one] | > 2000 nM | > 2000 nM | > 2000 nM | > 2000 nM | > 10000 nM | > 2000 nM | > 2000 nM | > 2000 nM | > 2000 nM | > 2000 nM | – | – | – | – | – | – | – | – | –
CC(=O)c1c(SCc2ccc([N+](=O)[O-])cc2)[nH]c2c(Br)ccc(Cl)c2c1=O [Compound 32, 3-acetyl-8-bromo-5-chloro-2-((4-nitrobenzyl)thio)quinolin-4(1H)-one] | > 2000 nM | > 2000 nM | > 2000 nM | > 2000 nM | > 10000 nM | > 2000 nM | > 2000 nM | > 2000 nM | > 2000 nM | > 2000 nM | – | – | – | – | – | – | – | – | –
COc1ccccc1[S+]([O-])c1[nH]c2c(Br)ccc(Cl)c2c(=O)c1C(C)=O (stereo not drawn) [Compound 15, 3-acetyl-8-bromo-5-chloro-2-((2-methoxyphenyl)sulfinyl)quinolin-4(1H)-one] | > 2000 nM | > 2000 nM | > 2000 nM | > 2000 nM | > 10000 nM | > 2000 nM | > 2000 nM | > 2000 nM | > 2000 nM | > 2000 nM | – | – | – | – | – | – | – | – | –
CSc1c(C(C)=O)c(=O)c2c(Cl)ccc(Br)c2n1S(C)(=O)=O [Compound 35, 3-acetyl-8-bromo-5-chloro-1-(methylsulfonyl)-2-(methylthio)quinolin-4(1H)-one] | > 2000 nM | > 2000 nM | > 2000 nM | > 2000 nM | > 10000 nM | > 2000 nM | > 2000 nM | > 2000 nM | > 2000 nM | > 2000 nM | – | – | – | – | – | – | – | – | –
CC(=O)c1c([S+]([O-])C(C)C)[nH]c2c(Br)ccc(Cl)c2c1=O (stereo not drawn) [Compound 25, 3-acetyl-8-bromo-5-chloro-2-(isopropylsulfinyl)quinolin-4(1H)-one] | > 2000 nM | > 2000 nM | > 2000 nM | > 2000 nM | > 10000 nM | > 2000 nM | > 2000 nM | > 2000 nM | > 2000 nM | > 2000 nM | – | – | – | – | – | – | – | – | –
CC(=O)c1c([S+]([O-])Cc2ccc(S(F)(F)(F)(F)F)cc2)[nH]c2c(Br)ccc(Cl)c2c1=O (stereo not drawn) [Compound 68, 3-acetyl-8-bromo-5-chloro-2-((4-(pentafluoro-16-sulfanyl)benzyl)sulfinyl)quinolin-4(1H)-one] | 780 nM | 1090 nM | 1300 nM | 980 nM | > 2000 nM | > 2000 nM | 1750 nM | 1660 nM | 1330 nM | 860 nM | – | – | – | – | – | – | – | – | –
CC(=O)c1c(SCc2cccc(C#N)c2)[nH]c2c(Br)ccc(Cl)c2c1=O [Compound 27, 3-(((3-acetyl-8-bromo-5-chloro-4-oxo-1,4-dihydroquinolin-2-yl)thio)methyl)benzonitrile] | > 2000 nM | > 2000 nM | > 2000 nM | > 2000 nM | > 10000 nM | > 2000 nM | > 2000 nM | > 2000 nM | > 2000 nM | > 2000 nM | – | – | – | – | – | – | – | – | –
CSc1c(C(C)=O)c(=O)c2c(Cl)ccc(Br)c2n1S(=O)(=O)c1ccc(C(C)(C)C)cc1 [Compound 40, 3-acetyl-8-bromo-1-((4-(tert-butyl)phenyl)sulfonyl)-5-chloro-2-(methylthio)quinolin-4(1H)-one] | > 2000 nM | > 2000 nM | > 2000 nM | > 2000 nM | > 10000 nM | > 2000 nM | > 2000 nM | > 2000 nM | > 2000 nM | > 2000 nM | – | – | – | – | – | – | – | – | –
CC(C)C(=O)c1c([S+]([O-])Cc2ccc(SC(F)(F)F)cc2)[nH]c2c(F)ccc(F)c2c1=O (stereo not drawn) [Compound 85, 5,8-difluoro-3-isobutyryl-2-((4-((trifluoromethyl)thio)benzyl)sulfinyl)quinolin-4(1H)-one] | – | – | – | – | – | – | – | – | – | > 2000 nM | > 2000 nM | > 2000 nM | > 2000 nM | > 2000 nM | > 10000 nM | > 2000 nM | > 2000 nM | > 2000 nM | > 2000 nM
O=C(c1c([S+]([O-])Cc2ccc(SC(F)(F)F)cc2)[nH]c2c(Br)ccc(Cl)c2c1=O)C1CC1 (stereo not drawn) [Compound 101, 8-bromo-5-chloro-3-(cyclopropanecarbonyl)-2-((4-((trifluoromethyl)thio)benzyl)sulfinyl)quinolin-4(1H)-one] | – | – | – | – | – | – | – | – | – | > 2000 nM | > 2000 nM | 1740 nM | 1610 nM | > 2000 nM | > 10000 nM | > 2000 nM | 1910 nM | > 2000 nM | > 2000 nM
CC(=O)c1c([S+]([O-])Cc2nonc2C)[nH]c2c(Br)ccc(Cl)c2c1=O (stereo not drawn) [Compound 106, 3-acetyl-8-bromo-5-chloro-2-(((4-methyl-1,2,5-oxadiazol-3-yl)methyl)sulfinyl)quinolin-4(1H)-one] | – | – | – | – | – | – | – | – | – | > 2000 nM | > 2000 nM | > 2000 nM | > 2000 nM | > 2000 nM | > 10000 nM | > 2000 nM | > 2000 nM | > 2000 nM | > 2000 nM
